Reference: US10793563B2, “GCN2 inhibitors and uses thereof” (Merck Patent GmbH, priority 2018, dated 2020)

How the values were obtained:
[1] = target: GCN2 kinase (Homo sapiens (Human), UniProt Q9P2K8); assay: GCN2 Enzyme Inhibition Assay (Transcreener ADP2 fluorescence polarization); format: biochemical; settings: 280 μM ATP, 200 μM (RS)7 peptide, 4 nM GCN2, 25° C.; for Ki: Ki(app)
How it was run: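 Transcreener ADP2 fluorescence polarization detection of ADP from 4 nM GCN2 with (RS)7 substrate in 25 mM Tris-HCl pH 7.5, 50 mM NaCl, 10 mM MgCl2, 1 mM DTT. Compound pre-incubated with enzyme 10 min at 25 °C; reaction started by ATP, run 1 h at 25 °C. IC50 and Ki(app) by tight-binding fit.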

[2] = target: intracellular GCN2 (phosphorylation of the GCN2 substrate eIF2α) (Homo sapiens (Human), UniProt Q9P2K8); assay: GCN2 Cellular Inhibition Assay (AlphaScreen SureFire P-eIF2α Ser51, borrelidin-treated U2OS cells); format: cell-based; settings: 10 μM borrelidin, 1 h, phosphorylated eIF2α Ser51, read-out: GCN2 Biomarker (IC50)
Chain of intracellular GCN2 (phosphorylation of the GCN2 substrate eIF2α) (Q9P2K8 whole entry): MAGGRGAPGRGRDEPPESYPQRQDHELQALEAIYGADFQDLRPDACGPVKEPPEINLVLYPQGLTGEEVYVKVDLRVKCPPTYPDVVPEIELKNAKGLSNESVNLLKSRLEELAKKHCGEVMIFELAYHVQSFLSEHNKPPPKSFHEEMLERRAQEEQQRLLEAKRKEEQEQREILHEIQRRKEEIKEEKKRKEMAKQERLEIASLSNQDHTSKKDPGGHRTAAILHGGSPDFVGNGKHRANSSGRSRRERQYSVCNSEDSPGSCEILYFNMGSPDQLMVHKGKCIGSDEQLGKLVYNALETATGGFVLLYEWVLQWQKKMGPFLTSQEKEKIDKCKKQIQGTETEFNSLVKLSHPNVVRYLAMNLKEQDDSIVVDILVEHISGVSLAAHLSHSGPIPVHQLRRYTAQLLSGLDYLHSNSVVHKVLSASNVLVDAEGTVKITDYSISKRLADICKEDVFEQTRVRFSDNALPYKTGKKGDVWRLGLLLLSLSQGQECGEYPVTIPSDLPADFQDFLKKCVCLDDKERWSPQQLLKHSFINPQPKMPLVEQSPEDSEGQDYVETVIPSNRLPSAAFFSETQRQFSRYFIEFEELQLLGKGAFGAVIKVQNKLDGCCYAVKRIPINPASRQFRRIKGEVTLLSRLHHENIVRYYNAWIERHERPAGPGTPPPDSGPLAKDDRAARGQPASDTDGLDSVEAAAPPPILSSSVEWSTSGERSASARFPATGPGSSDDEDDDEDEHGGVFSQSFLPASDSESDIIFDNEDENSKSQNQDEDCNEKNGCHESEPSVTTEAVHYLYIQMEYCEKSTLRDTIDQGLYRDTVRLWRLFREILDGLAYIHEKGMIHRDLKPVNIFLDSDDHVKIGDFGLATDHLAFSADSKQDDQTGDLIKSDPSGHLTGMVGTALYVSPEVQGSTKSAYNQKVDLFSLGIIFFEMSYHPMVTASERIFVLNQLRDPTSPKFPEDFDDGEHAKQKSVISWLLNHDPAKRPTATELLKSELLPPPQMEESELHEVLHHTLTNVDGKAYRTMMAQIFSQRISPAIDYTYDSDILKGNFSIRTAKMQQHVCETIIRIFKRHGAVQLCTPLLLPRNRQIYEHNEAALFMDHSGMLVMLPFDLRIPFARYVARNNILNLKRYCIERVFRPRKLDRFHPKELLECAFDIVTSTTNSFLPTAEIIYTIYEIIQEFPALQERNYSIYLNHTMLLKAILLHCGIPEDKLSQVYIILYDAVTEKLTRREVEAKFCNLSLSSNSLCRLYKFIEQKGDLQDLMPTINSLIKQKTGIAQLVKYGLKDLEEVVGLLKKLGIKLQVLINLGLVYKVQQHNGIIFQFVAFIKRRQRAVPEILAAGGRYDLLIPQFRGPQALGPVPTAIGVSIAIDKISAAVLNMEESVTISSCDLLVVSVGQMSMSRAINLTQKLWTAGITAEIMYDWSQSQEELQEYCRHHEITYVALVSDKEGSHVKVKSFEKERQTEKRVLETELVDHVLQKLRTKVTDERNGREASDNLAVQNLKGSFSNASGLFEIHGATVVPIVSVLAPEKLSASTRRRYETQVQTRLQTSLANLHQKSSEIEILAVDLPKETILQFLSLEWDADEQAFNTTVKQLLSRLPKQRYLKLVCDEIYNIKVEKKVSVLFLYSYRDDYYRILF
How it was run: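 U2OS cells adhered overnight, then given compound (top 40 μM, 4-fold serial dilutions) plus 10 μM borrelidin for 1 h at 37 °C. Lysates assayed for eIF2α phospho-Ser51 by AlphaScreen SureFire; % inhibition versus borrelidin-only wells.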

Chain of GCN2 kinase (Q9P2K8 whole entry): as above

| SMILES | Ki [1] [nM] | IC50 [2] [nM] | IC50 [1] [nM] |
| --- | --- | --- | --- |
| CC1CC(CS(C)(=N)=O)C(C)N(c2ccnc(-c3cnc4ccc(Cl)cn34)n2)C1 (centres unmarked) [I-47, ((1-(2-(6-Chloroimidazo[1,2-a]pyridin-3-yl)pyrimidin-4-yl)-2,5-dimethylpiperidin-3-yl)methyl)(imino)(methyl)-λ^6-sulfanone] | < 10 | 500 to 5000 | – |
| C[C@H]1CN(c2ccnc(-c3cnc4ccc(Cl)cn34)n2)C[C@H](c2cn[nH]c2F)O1 (stereo in doubt) [I-175, (2S,6S)-4-(2-(6-chloroimidazo[1,2-a]pyridin-3-yl)pyrimidin-4-yl)-2-(5-fluoro-1H-pyrazol-4-yl)-6-methylmorpholine] | – | < 500 | < 10 |
| C[C@@H]1CN(c2ccnc(-c3cnc4ccc(C(F)(F)F)cn34)n2)C[C@H](C)N1C(=O)CC1CCOCC1 [I-464, 1-(cis-2,6-dimethyl-4-(2-(6-(trifluoromethyl)imidazo[1,2-a]pyridin-3-yl)pyrimidin-4-yl)piperazin-1-yl)-2-(tetrahydro-2H-pyran-4-yl)ethan-1-one] | – | 500 to 5000 | 100 to 1000 |
| CC1CN(c2nccc(-c3cnc4ccc(Cl)cn34)n2)C(C)C(c2cn[nH]c2)N1 (centres unmarked) [I-35, 6-Chloro-3-[4-[2,5-dimethyl-3-(1H-pyrazol-4-yl)piperazin-1-yl]pyrimidin-2-yl]imidazo[12-a]pyridine] | 10 to 100 | 500 to 5000 | – |
| O=C(c1cnn(C2COC2)c1)N1CCN(c2ccnc(-c3cnc4ccc(C(F)(F)F)cn34)n2)CC1c1cn[nH]c1 (centres unmarked) [I-417, (2-(1H-pyrazol-4-yl)-4-(2-(6-(trifluoromethyl)imidazo[1,2-a]pyridin-3-yl)pyrimidin-4-yl)piperazin-1-yl)(1-(oxetan-3-yl)-1H-pyrazol-4-yl)methanone] | – | > 5000 | 100 to 1000 |
| FC(F)c1ccc2ncc(-c3nccc(N4CCOC(c5cn[nH]c5)C4)n3)n2c1 (centres unmarked) [I-15, 4-[2-[6-(Difluoromethyl)imidazo[1,2-a]pyridin-3-yl]pyrimidin-4-yl]-2-(1H-pyrazol-4-yl)morpholine] | < 10 | < 500 | – |
| FC(F)(F)c1ccc2ncc(-c3nccc(N4CCN(CC5CC5(F)F)C(c5cn[nH]c5)C4)n3)n2c1 (centres unmarked) [I-470, 3-(4-(4-((2,2-difluorocyclopropyl)methyl)-3-(1H-pyrazol-4-yl)piperazin-1-yl)pyrimidin-2-yl)-6-(trifluoromethyl)imidazo[1,2-a]pyridine] | – | < 500 | < 10 |
| FC(F)(F)c1ccc2ncc(-c3nccc(N4CCC[C@H](C(F)(F)F)C4)n3)n2c1 [I-233, (S)-6-(trifluoromethyl)-3-(4-(3-(trifluoromethyl)piperidin-1-yl)pyrimidin-2-yl)imidazo[1,2-a]pyridine] | – | 500 to 5000 | 100 to 1000 |
| Clc1ccc2ncc(-c3ncnc(N4CCOC(c5cn[nH]c5)C4)n3)n2c1 (centres unmarked) [I-22, 4-[4-(6-Chloroimidazo[1,2-a]pyridin-3-yl)-1,3,5-triazin-2-yl]-2-(1H-pyrazol-4-yl)morpholine] | < 10 | < 500 | – |
| Cc1cnc(N2C[C@H](C)C[C@@H](c3cn[nH]c3)C2)nc1-c1cnc2ccc(Cl)cn12 (stereo in doubt) [I-184, 6-chloro-3-(5-methyl-2-((3R,5S)-3-methyl-5-(1H-pyrazol-4-yl)piperidin-1-yl)pyrimidin-4-yl)imidazo[1,2-a]pyridine] | – | < 500 | 10 to 100 |
| CC(C)n1cc(C(=O)N2CCN(c3ccnc(-c4cnc5ccc(C(F)(F)F)cn45)n3)CC2c2cn[nH]c2)cn1 (centres unmarked) [I-391, (2-(1H-pyrazol-4-yl)-4-(2-(6-(trifluoromethyl)imidazo[1,2-a]pyridin-3-yl)pyrimidin-4-yl)piperazin-1-yl)(1-isopropyl-1H-pyrazol-4-yl)methanone] | – | 500 to 5000 | 100 to 1000 |
| O=C(c1cn[nH]n1)N1CCN(c2ccnc(-c3cnc4ccc(C(F)(F)F)cn34)n2)CC1c1cn[nH]c1 (centres unmarked) [I-442, (2-(1H-pyrazol-4-yl)-4-(2-(6-(trifluoromethyl)imidazo[1,2-a]pyridin-3-yl)pyrimidin-4-yl)piperazin-1-yl)(2H-1,2,3-triazol-4-yl)methanone] | – | 500 to 5000 | 10 to 100 |
| C[C@H]1C[C@@H](N=S(C)(C)=O)CN(c2nccc(-c3cnc4ccc(Cl)cn34)n2)C1 (stereo in doubt) [I-159, (((3R,5S)-1-(4-(6-chloroimidazo[1,2-a]pyridin-3-yl)pyrimidin-2-yl)-5-methylpiperidin-3-yl)imino)dimethyl-λ6-sulfanone] | – | < 500 | 10 to 100 |
| C[C@@H]1C[C@@H](c2cn[nH]c2)CN(c2nccc(-c3cnc4ccc(C5CC5)cn34)n2)C1 [I-236, 6-cyclopropyl-3-(2-((3R,5S)-3-methyl-5-(1H-pyrazol-4-yl)piperidin-1-yl)pyrimidin-4-yl)imidazo[1,2-a]pyridine] | – | < 500 | 10 to 100 |
| CC(=O)N1CCN(c2ccnc(-c3cnc4ccc(C(F)F)cn34)n2)CC1 [I-14, 1-[4-[2-[6-(Difluoromethyl)imidazo[1,2-a]pyridin-3-yl]pyrimidin-4-yl]piperazin-1-yl]ethanone] | 10 to 100 | 500 to 5000 | – |
| Cn1nccc1C(=O)N1CCN(c2ccnc(-c3cnc4ccc(C(F)(F)F)cn34)n2)CC1c1cn[nH]c1 (centres unmarked) [I-419, (2-(1H-pyrazol-4-yl)-4-(2-(6-(trifluoromethyl)imidazo[1,2-a]pyridin-3-yl)pyrimidin-4-yl)piperazin-1-yl)(1-methyl-1H-pyrazol-5-yl)methanone] | – | 500 to 5000 | 10 to 100 |
| Cc1cc(-c2cnc3ccc(N4CC(F)(F)C4)cn23)nc(N2C[C@H](C)C[C@H](c3cn[nH]c3)C2)n1 [I-288, 6-(3,3-difluoroazetidin-1-yl)-3-(6-methyl-2-((3R,5R)-3-methyl-5-(1H-pyrazol-4-yl)piperidin-1-yl)pyrimidin-4-yl)imidazo[1,2-a]pyridine] | – | < 500 | < 10 |
| NC(=O)[C@H]1CCCN(c2ccnc(-c3cnc4cc(F)c(Cl)cn34)n2)C1 [I-48, (3S)-1-[2-(6-Chloro-7-fluoro-imidazo[1,2-a]pyridin-3-yl)pyrimidin-4-yl]piperidine-3-carboxamide] | < 10 | < 500 | – |
| Cc1[nH]ncc1[C@H]1CN(c2nccc(-c3cnc4ccc(Cl)cn34)n2)C[C@@H](C)O1 [I-180, (2R,6S)-4-(4-(6-chloroimidazo[1,2-a]pyridin-3-yl)pyrimidin-2-yl)-2-methyl-6-(5-methyl-1H-pyrazol-4-yl)morpholine] | – | < 500 | < 10 |
| CC1(C)C[C@@H]1CN1CCN(c2ccnc(-c3cnc4ccc(C(F)(F)F)cn34)n2)C[C@@H]1c1cn[nH]c1 [I-527, 3-(4-((S)-4-(((S)-2,2-dimethylcyclopropyl)methyl)-3-(1H-pyrazol-4-yl)piperazin-1-yl)pyrimidin-2-yl)-6-(trifluoromethyl)imidazo[1,2-a]pyridine] | – | 500 to 5000 | 10 to 100 |
| CS(=O)(=O)N1CC2(CCCN(c3ccnc(-c4cnc5ccc(C(F)F)cn45)n3)C2)C1 [I-395, 6-(2-(6-(difluoromethyl)imidazo[1,2-a]pyridin-3-yl)pyrimidin-4-yl)-2-(methylsulfonyl)-2,6-diazaspiro[3.5]nonane] | – | 500 to 5000 | 100 to 1000 |
| O=C(O)C1(C2CCCN(c3ccnc(-c4cnc5ccc(Cl)cn45)n3)C2)CC1 (centres unmarked) [I-297, 1-(1-(2-(6-chloroimidazo[1,2-a]pyridin-3-yl)pyrimidin-4-yl)piperidin-3-yl)cyclopropane-1-carboxylic acid] | – | 500 to 5000 | 10 to 100 |
| C[C@@H]1CN(c2ccnc(-c3cnc4ccc(Cl)cn34)n2)C[C@@H](C(N)=O)O1 [I-177, (2S,6R)-4-(2-(6-chloroimidazo[1,2-a]pyridin-3-yl)pyrimidin-4-yl)-6-methylmorpholine-2-carboxamide] | – | < 500 | 10 to 100 |
| O=S(=O)(NC1CC1)c1ccc2ncc(-c3nccc(N4CCCC(c5cn[nH]c5)C4)n3)n2c1 (centres unmarked) [I-318, 3-(4-(3-(1H-pyrazol-4-yl)piperidin-1-yl)pyrimidin-2-yl)-N-cyclopropylimidazo[1,2-a]pyridine-6-sulfonamide] | – | > 5000 | 100 to 1000 |
| FC(F)(F)c1ccc2ncc(-c3nccc(N4CCN(CC5C6COCC65)C(c5cn[nH]c5)C4)n3)n2c1 (centres unmarked) [I-370, 3-(4-(4-((3-oxabicyclo[3.1.0]hexan-6-yl)methyl)-3-(1H-pyrazol-4-yl)piperazin-1-yl)pyrimidin-2-yl)-6-(trifluoromethyl)imidazo[1,2-a]pyridine] | – | < 500 | < 10 |
| FC(F)(F)c1ccc2ncc(-c3nccc(N4CCN(CC5CC56CCOCC6)C(c5cn[nH]c5)C4)n3)n2c1 (centres unmarked) [I-476, 4-[4-({6-oxaspiro[2.5]octan-1-yl}methyl)-3-(1H-pyrazol-4-yl)piperazin-1-yl]-2-[6-(trifluoromethyl)imidazo[1,2-a]pyridin-3-yl]pyrimidine] | – | < 500 | < 10 |
| FC(F)(F)c1ccc2ncc(-c3nccc(N4CCCC(n5ccc(C(F)(F)F)n5)C4)n3)n2c1 (centres unmarked) [I-355, 6-(trifluoromethyl)-3-(4-(3-(3-(trifluoromethyl)-1H-pyrazol-1-yl)piperidin-1-yl)pyrimidin-2-yl)imidazo[1,2-a]pyridine] | – | 500 to 5000 | 100 to 1000 |
| NC(=O)C1CN(c2ccnc(-c3cnc4ccc(C(F)(F)F)cn34)n2)CCN1C1CC1 (centres unmarked) [I-311, 1-cyclopropyl-4-(2-(6-(trifluoromethyl)imidazo[1,2-a]pyridin-3-yl)pyrimidin-4-yl)piperazine-2-carboxamide] | – | 500 to 5000 | 10 to 100 |
